Assays:
[1] = test system: interleukin-1β; conditions: cited from earlier work
[2] = test system: semen ejaculates; test: Lipid peroxidation inhibition in semen ejaculates; type: cell-based; conditions: for inhibition at 20 µM: 20 µM in diluent of Example 1; for inhibition at 40 µM: 40 µM in diluent of Example 1; for inhibition at 50 µM: 50 µM in diluent of Example 1; for inhibition at 60 µM: 60 µM in diluent of Example 1; for inhibition at 80 µM: 80 µM in diluent of Example 1; for inhibition at 100 µM: 100 µM in diluent of Example 1
Description: (§1) Two diluents are prepared in accordance with Example 1, adding isoespintanol to one of them, and thymol to the other. In order to determine the cytoprotective (antioxidant) potential of each, the effects of adding different concentrations of these compounds to semen ejaculates were studied. The inhibition of ROS production and the reduction of lipid peroxidation were assessed, thereby determining the effective range as well as the maximum inhibitory concentration of thymol and isoespintanol (Tables 2 and 3). Table 2. Results of the inhibition of ROS production

[3] = test system: carrageenan-induced foot inflammation; conditions: some rodents; cited from earlier work
[4] = test system: semen ejaculates; test: Inhibition of ROS production in semen ejaculates; type: cell-based; conditions: for inhibition at 20 µM: 20 µM in diluent of Example 1; for inhibition at 40 µM: 40 µM in diluent of Example 1; for inhibition at 50 µM: 50 µM in diluent of Example 1; for inhibition at 60 µM: 60 µM in diluent of Example 1; for inhibition at 80 µM: 80 µM in diluent of Example 1; for inhibition at 100 µM: 100 µM in diluent of Example 1
Description: as §1

| SMILES | reduction of interleukin-1β production [1] | inhibition at 20 µM [2] | inhibition at 40 µM [2] | inhibition at 50 µM [2] | inhibition at 60 µM [2] | inhibition at 80 µM [2] | inhibition at 100 µM [2] | reduction of carrageenan-induced foot inflammation [3] | inhibition at 20 µM [4] | inhibition at 40 µM [4] | inhibition at 50 µM [4] | inhibition at 60 µM [4] | inhibition at 80 µM [4] | inhibition at 100 µM [4] |
| --- | --- | --- | --- | --- | --- | --- | --- | --- | --- | --- | --- | --- | --- | --- |
| COc1cc(C)c(OC)c(O)c1C(C)C [isoespintanol, 2-isopropyl-3,6-dimethoxy-5-methylphenol] | ≤ 72% | 21.1% | 29.9% | 29.4% | 51.1% | 42.1% | 29.8% | 43% | 16% | 24.2% | 34.5% | 16.9% | 6.1% | 5.6% |
| Cc1ccc(C(C)C)c(O)c1 [thymol, 2-isopropyl-5-methylphenol, reference compound] |  | 48.1% | 47.7% | 40.8% | 36.6% | 47% | 28.3% |  | 11.7% | 12.3% | 51.2% | 26% | 21% | 27.6% |

— patent EP3169154B1, “DILUENT FOR SEMEN PRESERVATION” (Politécnico Colombiano Jaime Isaza Cadavid, priority 2014, dated 2016)
